Values of other authors as cited in patent US9828409B2, “Bridged-cyclo-ProTides as prodrugs of therapeutic nucleosides and nucleotides” (priority 2014, dated 2017).

Conditions: patients in clinical trials

Compound: CCOc1nc(N)nc2c1ncn2[C@@H]1O[C@@H]2COP(=O)(OC(C)C)O[C@H]2[C@@]1(C)F (stereo partly shown) [PSI-352938]
- level of liver enzymes in patients: elevated level of liver enzymes
